Test results from patent US20230110689A1, “AGONIST COMBINATION” (Zealand Pharma A/S, priority 2020, published 2023).
Starred links: 1 amine or outer side, 2 acyl side, 3 side chain; linkers in the order of their positions; H or OH if unused. Non-standard residues stand in square brackets, D forms with d. Groups on a side chain read outwards from the residue. *: point of attachment. C18 diacid = O=C(O)CCCCCCCCCCCCCCCCC(=O)*; γGlu = O=C(O)[C@H](CCC(=O)[*:2])N[*:1]; Aib = CC(C)(N)C(=O)O

What was measured:
Format in all cases: in vivo, C57BL/6J mice
[1] = test system: Short Bowel Syndome (SBS) mice; assay: SBS mouse model: jejunum weight (wet weight, dry weight, water content per 2 cm); conditions: ICR mice, 30 nmol/kg once daily
Excerpt: (§1) Adult, male C57BL/6J mice with ˜30 g body weight of ˜4 months, received a 12-cm ileum and cecum resection (ICR) with jejunocolonic anastomosis (see FIG. 1, middle). The mice were then randomly assigned to either Cpd 18 or vehicle treatment As control for the abdominal surgery, the sham group was included which had laparotomy, bowel exposure, transection and end-to-end anastomosis but no resection (see FIG. 1, bottom). To prevent intestinal obstruction, all mice were switched to liquid diet 2 days before surgery and maintained on this diet until the end of the experiment. Throughout the experiment, animals were singly housed. All mice were studied with the intention to survive to day 14.
(§2) Briefly, mice were anesthetized by i.p. injection of ketamine (100 mg/kg bw) and xylazine (15 mg/kg bw) and orally intubated and ventilated. After midline incision, the distal small bowel and the cecum were exposed and then transected 12 cm proximal to the ileocecal junction and immediately distal to the cecum. The resected bowel was removed, and the length of the specimen was measured. An end-to-end, jejuno-colonic anastomosis was created and the abdomen was closed. In the sham group, laparotomy, bowel exposure, transection and end-to-end anastomosis but no resection was performed. Immediately after surgery, all mice were weighed and received 1 ml isotonic saline subcutaneously and carprofen 5 mg/kg body weight. All surgical procedures were performed by the same surgeon. Mice were kept in a heated terrarium (29° C.) for 4 h and then returned to individual cages with free access to liquid food and water. The liquid diet was provided in feeding tubes. […]
(§3) Mice were scored for wellbeing daily as described (Berlin et al. 2019). If the wellness score dropped to below 4 pts, or when weight loss exceeded 20%, the mouse was immediately killed and not analyzed further. […]
Sham and SBS mice were prepared as described under Preparation of Short Bowel Syndome (SBS) mice. […] Water content and dry weight was then derived and calculated.

[2] = test system: Short Bowel Syndome (SBS) mice; assay: Short bowel syndrome (SBS) mouse model: post operative survival, body weight and dietary intake; conditions: ICR mice
Excerpt: as §1
as §2, with “tubes. Mice were allowed to recover for a day after surgery, and then injected once daily with 30 nmol/kg body weight of Cpd 18.” for “tubes.”
as §3
Body weight (FIG. 6) and food consumption (FIG. 7) was measured daily. […]

[3] = test system: Short Bowel Syndome (SBS) mice; assay: SBS mouse model: gross morphology / length of intestine on day 14; conditions: ICR mice, 30 nmol/kg once daily, FIG. 16
Excerpt: as §1
Briefly, mice were anesthetized by i.p. injection of ketamine (100 mg/kg bw) and xylazine (15 mg/kg bw) and orally intubated and ventilated. After midline incision, the distal small bowel and the cecum were exposed and then transected 12 cm proximal to the ileocecal junction and immediately distal to the cecum. The resected bowel was removed, and the length of the specimen was measured. An end-to-end, jejuno-colonic anastomosis was created and the abdomen was closed. […]
as §3

[4] = test system: Short Bowel Syndome (SBS) mice; assay: SBS mouse model: histological morphometry of intestine (mucosal height, bowel diameter); conditions: ICR mice, 30 nmol/kg once daily, vs sham
Excerpt: as §1
Briefly, mice were anesthetized by i.p. injection of ketamine (100 mg/kg bw) and xylazine (15 mg/kg bw) and orally intubated and ventilated. […] The resected bowel was removed, and the length of the specimen was measured. […]
as §3
Sham and SBS mice were prepared as described under Preparation of Short Bowel Syndome (SBS) mice. […] Bowel diameter was measured from the same samples from serosa to serosa in two dimensions. […]

## H-H[Aib]EGSFTSELATILDK([γGlu-C18 diacid])QAARDFIAWLIQHKITD-OH [Cpd 18]
[1]; day 14, desiccated sections, FIG. 11
  dry weight per 2 cm of intestine: the same increases in mass were measured
[1]; day 14, proximal jejunum, FIG. 10
  wet weight of 2 cm sections of intestine: 73 mg
[1]; day 14, FIG. 12
  percentage of water content per 2 cm of intestine: each group had an equal water content of the intestine
[2]; 30 nmol/kg body weight once daily from day 1 after surgery, FIG. 5
  survival rate after 14 days: 74%
[2]; 30 nmol/kg once daily, liquid diet, measured daily, vs vehicle, FIG. 7
  dietary intake: lower in the Cpd 18 treated animals from day 2 onwards as compared to vehicle
[2]; 30 nmol/kg once daily, measured daily to day 14, vs vehicle, FIG. 6
  relative body weight (relative to initial weight): differed from the vehicle group after six days onwards by starting to increase towards the initial weight
[3]; day 14, representative example vs sham
  bowel length and thickness: An increase in bowel length and thickness
[3]; day 14, representative example, absent in vehicle
  solid feces in intestine: solid feces in the sham and Cpd 18 treated intestine
[4]; day 14, crypt base to villus tip, FIG. 8
  mucosal height: approximately double the mucosal height of sham treated animals
[4]; day 14, serosa to serosa, FIG. 9
  bowel diameter: approximately double the bowel diameter of sham treated animals
